From US11993594B2, “IRAK inhibitors and method for making and using” (Rigel Pharmaceuticals, Inc., priority 2016, dated 2024)
Like-named read-outs stand apart in the source and are kept apart here.

Tests used:
[1] = system: LPS Induced IL23p19 in THP-1 Cells; test: LPS Induced IL23p19 in THP-1 Cells (with IFNγ Primed) Assay; assay type: cell-based, human; conditions: THP-1 cells primed with IFNγ 50 ng/mL, LPS 1 ug/mL, 18 hours, 10 pt, read-out: IL23-p19 ELISA, THP1-IFNγ, LPS, 10 pt EC50
Excerpt: LPS Induced IL23p19 in THP-1 Cells (with IFNγ Primed) Assay
THP-1 Cells (ATCC, Cat #TIB-202), Dimethyl Sulfoxide (DMSO) (Sigma-Aldrich, Cat #D2650), RPMI 1640 (Cellgro, Cat #10-040-CM), Fetal Bovine Serum (Sigma, Cat #F4135), Albumin From Bovine Serum (BSA) (Sigma-Aldrich, Cat #A7906), LPS (Serotype K-235, Sigma, Product Number L 2143), IFNγ (Peprotech, Cat #300-02) Capture antibody: Human IL-23p19 ELISA (e-Bioscience, Cat. #14-7238-85), Detection antibody: Primary Mouse Biotinylated anti-human IL-12(p40/p70) (e-Bioscience, Cat. #13-7129-85), Secondary HRP-conjugated Streptavidin (R&D Systems, Cat #DY998), 1×PBST Washing Buffer (PBS-Tween tablet) (VWR International, Cat #80058-558), ELISA Blocking Buffer (PBS with 1% BSA), ELISA Dilution Buffer (PBS with 1% BSA), 384 Well Flat-Bottom, MaxiSorp Black Immuno Plates (Thermo Scientific, Cat #12-565-346), 384 Well Flat-Bottom, White Tissue Culture Plates (Thermo Scientific, Cat #12-565-343), Super Signal ELISA Pico Chemiluminescent Substrate (Thermo Scientific, Cat #37070), Cell Titer Glo reagent (Promega, Cat #G7573), Positive control, IKK2VI inhibitor (Calbiochem, Cat #401483), AquaMax 4000 plate washer (Molecular Devices), Luminometer, Wallac Victor2 1420 Multilabel Counter.
On day 1, 50K/well THP-1 cells were seeded and primed with IFNγ (50 ng/mL) in 384-well plates for about 18 hours in RPMI media with 10% FBS. On day 2, the compound was serially diluted in DMSO from 5 mM in 3-fold dilutions, and then diluted 1:125 in RPMI media with 10% FBS. 50 μL/well 2× compound was added to 50 μL/well THP-1 cells (with IFNγ primed) in duplicate in 384 well tissue culture plates. The cells were pre-incubated with compound for 1 hour at 37° C., 5% CO2 before addition of 10 μL/well 11×LPS to give a final concentration of 1 ug/mL LPS. Day 3, after stimulation for 18 hours at 37° C., 5% CO2, the assay plate was centrifuged and 70 μL/well supernatant was harvested. IL-23p19 protein in 70 µL/well of supernatant was measured by sandwich ELISA, and 25 μl/well Cell Titer Glo reagent was added to the remaining cells to measure compound toxicity.
Human IL-23p19 Sandwich ELISA:
Maxisorp immuno ELISA plates were pre-coated with 25 μL/well of anti-IL-23p19 capture antibody (2.5 ug/mL) in PBS overnight at room temperature. After washing with 1×PBST, the plates were blocked using 100 μL/well of 1% BSA in PBS for 2 hours at room temperature. The plates were washed three times with 1×PBST and 70 μL/well supernatant were added. The plates were incubated at room temperature for 2 hours with shaking and washed three times with 1×PBST. 25 μL/well of biotin labeled anti-IL-12(p40/p70) detection antibody (100 ng/mL) in PBS with 1% BSA was added and the plates were incubated at room temperature for 2 hours with shaking. After washing three times with 1×PBST, 25 μL/well of streptavidin-HRP (1:200) in PBS with 1% BSA was added and the plates were incubated at room temperature for 20 minutes with shaking. The plates were washed three times with 1×PBST and 25 μL/well of Super Signal ELISA Pico Chemiluminescent Substrate were added. The plates were read with a luminometer, and the chemiluminescence values were entered into Athena (Rigel) for curve fitting, EC50 calculation, and database storage. […]

[2] = system: LPS induced IL-23 (p19/p40) in DC cells; test: IL23-p19 ELISA, dendritic (DC) cells differentiated from human PBMC, LPS stimulated; assay type: cell-based; conditions: LPS 1 μg/ml, 18 hours, 10 pt
Experimental: Compound Screening Using DC Cells
Human PBMC cells (400 million) obtained from the vendor were transferred into a T-175 flask containing 15 ml RPMI media (10% FBS) and incubate for 2 hours at 37° C. After 2 hours, the media including floating cells was aspirated out carefully and 12 ml of fresh RPMI media (10% FBS) containing GMCSF (100 ng/ml) and IL4 (20 ng/ml) was added, and the flask was kept in a 37° C. incubator for 7 days.
After 3 days, fresh GMCSF (100 ng/ml) and IL4 (20 ng/ml) were added to the flask and the incubation continued. After 7 days, the fully differentiated cells were harvested by spinning down (1200 rpm/5 min) and aspirating the media. The cells were suspended in fresh RPMI media (10% FBS) containing 50 ng/ml IFNγ (1000 U/ml) and then plated (50K/well in 100 μl) onto a white clear bottom 96 well plate and left in a 37° C. incubator for 24 hours.
After 24 hours incubation, 100 μl of RPMI media was added containing 2× concentrated test compound per well to the above cell-culture media (final concentration becomes 1×) and the plates were pre-incubated for 1 hour at 37° C. before stimulating with LPS.
After 1 hour compound pre-incubation, 10 μl per well of 20× concentrated LPS solution in RPMI media was added to give a final concentration of 1 μg/ml. The mixture was shaken and incubated the plates at 37° C. for an additional 18 hours.
155 μl of the supernatant was harvested from each well carefully (without the tip touching the bottom of the well) and to the remaining 50 μl/well of the cell culture plate was added 50 μl of Cell Titer Glo reagent. The mixture was incubated for 1-2 minutes on a shaker and the plate was read for luminescence intensity to determine the compound cytotoxicity. The cell culture supernatant collected above was used to carry out IL23 ELISA (65 μl—Supernatant) and IL10 ELISA (90 μl—Supernatant) as described below.
Human IL-23 (p19/p40) ELISA Protocol (e-Biosciences)
To 10.5 ml PBS add 50 μl of anti-IL23 (p19) was added capture antibody (2.5 μg/ml). The mixture was mixed well and 100 μl of the coating solution was added to each well of the 96 well white plates from Pierce. The wells were covered and incubated overnight at 4° C.
The anti-IL23 (p19)-antibody-coated plates were washed 2× using TBST (use plate washer) and blocked using 200 μl of 0.5% Casein for 1.5 to 2 hours at room temperature with shaking.
The plates were washed 2× using TBST and the supernatant was transferred (65 μl/well) to the above pre-blocked/IL23(p19)-antibody-coated 96 well plate, and incubated at room temperature for 1.5 hours with shaking.
The plates were washed 4× using TBST (plate washer) and 100 μl/well detection antibody solution prepared from 2 μl of biotin labeled anti-IL-12 (p40/p70) antibody in 11 ml 1% BSA/PBS solution (1-5000 dilution) was added. The plates were incubated for 1 hour with shaking at Room temperature.
Again, the plates were washed 4× with TBST and 100 μl of HRP labeled Streptavidin (R&D Systems) solution (10 μl/10 ml 1% BSA solution) was added, and the plates were incubated at room temperature for another 45 minutes with shaking.
After 45 minutes, the plates were washed with TBST 4× and 100 μl/well Super Signal ELISA Pico Chemiluminescent Substrate from Pierce (3.5 ml A+3.5 ml B+3.5 ml MQ water) was added. The plates were shaken for 1-2 minutes then read on a plate reader. […]

Compound	EC50 ([1]; Table 1)	EC50 ([1]; Table 2)	EC50 ([2]; Table 1, IFNγ 50 ng/ml)	EC50 ([2]; Table 2, IFNγ 50 ng/ml)	EC50 ([1]; Homo sapiens, Table 1)	EC50 ([1]; Table 3)	EC50 ([2]; Table 3, IFNγ 50 ng/ml)
CCO[C@H]1CC[C@H](n2cc(NC(=O)c3coc(-c4cn[nH]c4)n3)c(-c3ncc(F)cc3F)n2)CC1 [Compound I-13, N-(3-(3,5-difluoropyridin-2-yl)-1-((1r,4r)-4-ethoxycyclohexyl)-1H-pyrazol-4-yl)-2-(1H-pyrazol-4-yl)oxazole-4-carboxamide]	34.1 nM	34.1 nM	143 nM	143 nM	–	–	–
O=C(Nc1cn(CCOCC(F)(F)F)nc1-c1ccccn1)c1coc(-c2cn[nH]c2)n1 [Compound I-15, 2-(1H-pyrazol-4-yl)-N-(3-(pyridin-2-yl)-1-(2-(2,2,2-trifluoroethoxy)ethyl)-1H-pyrazol-4-yl)oxazole-4-carboxamide]	–	–	451 nM	–	85.3 nM	–	–
CCO[C@H]1CC[C@H](n2cc(NC(=O)c3coc(-c4cnn(COP(=O)(O)O)c4)n3)c(-c3cnccn3)n2)CC1 [Compound I-17, (4-(4-((1-((1r,4r)-4-ethoxycyclohexyl)-3-(pyrazin-2-yl)-1H-pyrazol-4-yl)carbamoyl)oxazol-2-yl)-1H-pyrazol-1-yl)methyl dihydrogen phosphate]	60.3 nM	60.3 nM	15.6 nM	15.6 nM	–	–	–
CCOC1CCC(n2cc(NC(=O)c3coc(-c4cnn(COP(=O)(O)O)c4)n3)c(-c3cnccn3)n2)CC1 (stereo not drawn) [Compound I-18, sodium (4-(4-((1-((1r,4r)-4-ethoxycyclohexyl)-3-(pyrazin-2-yl)-1H-pyrazol-4-yl)carbamoyl)oxazol-2-yl)-1H-pyrazol-1-yl)methyl phosphate]	83.3 nM	83.3 nM	25.6 nM	25.6 nM	–	–	–
O=C(Nc1cn(C2CCOCC2)nc1-c1ccccn1)c1coc(-c2cn[nH]c2)n1 [Compound I-20, 2-(1H-pyrazol-4-yl)-N-(3-(pyridin-2-yl)-1-(tetrahydro-2H-pyran-4-yl)-1H-pyrazol-4-yl)oxazole-4-carboxamide]	–	–	–	–	–	39.9 nM	135 nM
CCOCCn1cc(NC(=O)c2coc(-c3cn[nH]c3)n2)c(-c2ccccn2)n1 [Compound I-21, N-(1-(2-ethoxyethyl)-3-(pyridin-2-yl)-1H-pyrazol-4-yl)-2-(1H-pyrazol-4-yl)oxazole-4-carboxamide]	–	–	–	–	–	243 nM	170 nM
CCO[C@H]1C[C@@H](n2cc(NC(=O)c3coc(-c4cn[nH]c4)n3)c(-c3ccccn3)n2)C1 [Compound I-22, N-(1-((1s,3s)-3-ethoxycyclobutyl)-3-(pyridin-2-yl)-1H-pyrazol-4-yl)-2-(1H-pyrazol-4-yl)oxazole-4-carboxamide]	–	–	–	–	–	43.4 nM	36.9 nM
O=C(Nc1cn(C2CCC2)nc1-c1ccccn1)c1coc(-c2cn[nH]c2)n1 [Compound I-23, N-(1-cyclobutyl-3-(pyridin-2-yl)-1H-pyrazol-4-yl)-2-(1H-pyrazol-4-yl)oxazole-4-carboxamide]	–	–	–	–	–	270 nM	71 nM
COCCOCCn1cc(NC(=O)c2coc(-c3cn[nH]c3)n2)c(-c2ccccn2)n1 [Compound I-24, N-(1-(2-(2-methoxyethoxy)ethyl)-3-(pyridin-2-yl)-1H-pyrazol-4-yl)-2-(1H-pyrazol-4-yl)oxazole-4-carboxamide]	–	–	217 nM	–	238 nM	–	–
O=C(Nc1cn(CCOCC(F)F)nc1-c1ccccn1)c1coc(-c2cn[nH]c2)n1 [Compound I-25, N-(1-(2-(2,2-difluoroethoxy)ethyl)-3-(pyridin-2-yl)-1H-pyrazol-4-yl)-2-(1H-pyrazol-4-yl)oxazole-4-carboxamide]	–	–	–	–	–	400 nM	161 nM
O=C(Nc1cn([C@H]2CC[C@H](O)CC2)nc1-c1cnccn1)c1coc(-c2cn[nH]c2)n1 [Compound I-27, N-(1-((1r,4r)-4-hydroxycyclohexyl)-3-(pyrazin-2-yl)-1H-pyrazol-4-yl)-2-(1H-pyrazol-4-yl)oxazole-4-carboxamide]	–	–	64.1 nM	–	15.8 nM	–	–
CCO[C@H]1CC[C@H](n2cc(NC(=O)c3coc(-c4cn[nH]c4)n3)c(-c3nc(F)c(F)cc3F)n2)CC1 [Compound I-28, N-(1-((1r,4r)-4-ethoxycyclohexyl)-3-(3,5,6-trifluoropyridin-2-yl)-1H-pyrazol-4-yl)-2-(1H-pyrazol-4-yl)oxazole-4-carboxamide]	–	–	111 nM	–	474 nM	–	–
